Results from EP0847397B1, “WATER-SOLUBLE C-RING ANALOGUES OF 20 (S)-CAMPTOTHECIN” (DR. REDDY'S RESEARCH FOUNDATION, priority 1996, dated 1997).

System: not listed separately
Test: Lactone stability in whole blood (HPLC)
Type: in vitro ADME
Details: 100 μM, 37°C, lactone peak area relative to zero time (100%); 180 min
Procedure: 2. Lactone Stability in whole blood:
2 ml of blood from a healthy volunteer was collected in a tube containing 40 µl of heparin (572 IU) to prevent coagulation, 4 mM and 40 µM working solutions of the drug in DMSO were prepared and added to aliquots of whole blood to give final concentration of 100 µM and 1 µM respectively. The drug is incubated in whole blood at 37°C and 20 µl samples are collected into 180 µl of chilled methanol (-30°C) at different time intervals (0, 1, 2 & 3 hrs). Vortex and then centrifuge at 11000 rpm for 3 min in a microcentrifuge at room temperature. Dilute 100 µl of the supernatant with water to 300-500 µl depending upon the signal response (UV for 100 µM concentration and fluoroscence for 1 µM concentration) of the compound. 200 µl of the diluted sample is injected on to the HPLC column previously equilibrated with the mobile phase. The area under peak corrsponding to lactone forms is measured. Zero time peak area is taken as 100%, and the proportion of lactone peak area at different time points is calculated to determine the equilibrium lactone stability as obtained by consistent lactone proportion over two successive time points. (Biochemistry, 1994; 33:10325-10336 and J. Pharm. Sci., 1995; 84:518-519).

Question: With `CCOC1c2cc3c(O)cccc3nc2-c2cc3c(c(=O)n21)COC(=O)[C@]3(O)CC` (single isomer, unassigned) [Example 11 Diastereomer B, 5-Ethoxy-9-hydroxycamptothecin] as the compound, how does the “Lactone Stability in Whole Blood (after 3 hours)” value (from here on “Lactone Stability in Whole Blood”) read?
Answer: 6.15±2.53

Question: For `CC[C@@]1(O)C(=O)OCc2c1cc1n(c2=O)C(OCC(F)(F)F)c2cc3cc(O)ccc3nc2-1` (single isomer, unassigned) [Example 27 Diastereomer A, 10-Hydroxy-5-trifluoroethoxycamptothecin], which “Lactone Stability in Whole Blood” value is on record?
Answer: 4.58±1.72

Question: For `CC[C@@]1(O)C(=O)OCc2c1cc1n(c2=O)C(OCC(F)(F)F)c2cc3cc(O)ccc3nc2-1` (single isomer, unassigned) [Example 27 Diastereomer B, 10-Hydroxy-5-trifluoroethoxycamptothecin], which “Lactone Stability in Whole Blood” value is on record?
Answer: 11.9±2.91

Same assay, conditions: human, whole blood, 100 μM, 37°C, lactone peak area relative to zero time (100%); read-out: Lactone Stability in Whole Blood (after 3 hours)

Question: For `CCOC1c2cc3c(O)cccc3nc2-c2cc3c(c(=O)n21)COC(=O)[C@]3(O)CC` (single isomer, unassigned) [Example 11 Diastereomer A, 5-Ethoxy-9-hydroxycamptothecin], which remaining at 3 h, 100 µM is on record?
Answer: 3.73 ± 1.5%

System: NCI's 60 human tumor cell line assay
Test: cells
Type: cell-based
Details: 60 cell, 48 h, read-out: IC50 (mean GI50 against NCI's 60 human tumor cell line assay)
Procedure: Each test compound was screened against a battery of 60 human cell lines obtained from eight organs. In a typical procedure, the cell suspensions that were diluted according to the particular cell type and the expected target cell density (5000-40,000 cells per well based on cell growth characteristics) were added into 96-well microtiter plates. Inoculates were allowed a preincubation period of 24h at 37°C. for stabilization. Dilutions at twice the intended test concentrations were added at time zero in 100-µl aliquots to microtiter plate wells. Usually test compounds were evaluated at five 10-fold dilutions. The highest well concentration used in the test is 10^-4M. The cells are then incubated in the presence of drug (the test compound) for further 48h in 5% CO2 atmosphere and 100% humidity. At the end of this time, the adherent cells are fixed to the plate by means of trichloroacetic acid, and after a number of washes, the cell layer is treated with the protein stain Sulforhodamine B. The optical density which is proportional to protein mass, is then read by automated spectrophotometric plate readers at a wavelength of 515 nm. Readings are transferred to a microcomputer and final reports are generated using especially developed software.

Question: For `CCc1c2c(nc3ccccc13)-c1cc3c(c(=O)n1C2OCCN1CCCCC1)COC(=O)[C@]3(O)CC` (stereo partly drawn) [7-Ethyl-5-piperidinoethoxy camptothecin], which mean GI50 is on record?
Answer: > 30 µM

Question: Which mean GI50 does the source give for `CCc1c2c(nc3ccccc13)-c1cc3c(c(=O)n1C2OCC(F)(F)F)COC(=O)[C@]3(O)CC` (stereo partly drawn) [7-Ethyl-5-trifluoroethoxycamptothecin] here?
Answer: 7.41 µM

Question: With `CC[C@@]1(O)C(=O)OCc2c1cc1n(c2=O)C(OCCOC)c2cc3c([N+](=O)[O-])cccc3nc2-1` (stereo partly drawn) [9-Nitro-5-methoxyethoxy camptothecin] as the compound, how does the mean GI50 read?
Answer: 2.04 µM

Question: Which mean GI50 does the source give for `CC[C@@]1(O)C(=O)OCc2c1cc1n(c2=O)C(OC)c2cc3ccccc3nc2-1` (stereo partly drawn) [Example 1, 5-methoxycamptothecin] here?
Answer: 8.5 µM

Question: For `CCOC1c2c(nc3ccccc3c2CC)-c2cc3c(c(=O)n21)COC(=O)[C@]3(O)CC` (stereo partly drawn) [Example 3, 5-Ethoxy-7-ethylcamptothecin], which mean GI50 is on record?
Answer: 1.41 µM

Question: For `CCOC1c2cc3c(OC)cccc3nc2-c2cc3c(c(=O)n21)COC(=O)[C@]3(O)CC` (stereo partly drawn) [Example 5, 5-Ethoxy-9-methoxycamptothecin], which mean GI50 is on record?
Answer: 2.45 µM

Question: Which mean GI50 does the source give for `CCOC1c2c(nc3cccc(OC)c3c2CC)-c2cc3c(c(=O)n21)COC(=O)[C@]3(O)CC` (stereo partly drawn) [Example 7, 5-Ethoxy-9-methoxy-7-ethylcamptothecin] here?
Answer: 2.13 µM

Question: For `CCOC1c2cc3ccccc3nc2-c2cc3c(c(=O)n21)COC(=O)[C@]3(O)CC` (stereo partly drawn) [Example 9, 5-Ethoxycamptothecin], which mean GI50 is on record?
Answer: 9.54 µM

Question: For `CCCCOC1c2cc3ccccc3nc2-c2cc3c(c(=O)n21)COC(=O)[C@]3(O)CC` (stereo partly drawn) [Example 10, 5-butoxycamptothecin], which mean GI50 is on record?
Answer: 6.16 µM

Question: Which mean GI50 does the source give for `CCOC1c2cc3cccc([N+](=O)[O-])c3nc2-c2cc3c(c(=O)n21)COC(=O)[C@]3(O)CC` (stereo partly drawn) [Example 16, 12-Nitro-5-ethoxycamptothecin] here?
Answer: > 30 µM

Question: For `CC[C@@]1(O)C(=O)OCc2c1cc1n(c2=O)C(OC)c2cc3c(N)cccc3nc2-1` (stereo partly drawn) [Example 20, 9-amino-5-methoxycamptothecin], which mean GI50 is on record?
Answer: 6.76 µM

Question: Which mean GI50 does the source give for `CC[C@@]1(O)C(=O)OCc2c1cc1n(c2=O)C(O)c2cc3cccc([N+](=O)[O-])c3nc2-1` (stereo partly drawn) [Example 23, 12-Nitro-5-hydroxy camptothecin] here?
Answer: > 30 µM

Question: With `CC[C@@]1(O)C(=O)OCc2c1cc1n(c2=O)C(OCCCl)c2cc3ccccc3nc2-1` (stereo partly drawn) [Example 24, 5-(2'-Chloroethoxy)camptothecin] as the compound, how does the mean GI50 read?
Answer: 4.57 µM

Question: Which mean GI50 does the source give for `CC[C@@]1(O)C(=O)OCc2c1cc1n(c2=O)C(OCCF)c2cc3ccccc3nc2-1` (stereo partly drawn) [Example 29, 5-(2'-fluoroethoxy)camptothecin] here?
Answer: 1.58 µM

Question: For `CCc1c2c(nc3ccccc13)-c1cc3c(c(=O)n1C2OCCF)COC(=O)[C@]3(O)CC` (stereo partly drawn) [Example 31, 5-(2'-Fluoroethoxy)-7-ethylcamptothecin], which mean GI50 is on record?
Answer: 4.36 µM

Question: With `CC[C@@]1(O)C(=O)OCc2c1cc1n(c2=O)C(OCCO)c2cc3cc(O)ccc3nc2-1` (stereo partly drawn) [Example 33, 5-(2'-Hydroxyethoxy)-10-hydroxycamptothecin] as the compound, how does the mean GI50 read?
Answer: 8.12 µM

Question: With `CC[C@@]1(O)C(=O)OCc2c1cc1n(c2=O)C(OCCN)c2cc3ccccc3nc2-1` (stereo partly drawn) [Example 36, 5-(2'-aminoethoxy) camptothecin] as the compound, how does the mean GI50 read?
Answer: 30 µM

Question: For `CCc1c2c(nc3ccccc13)-c1cc3c(c(=O)n1C2OCCCN(C)C)COC(=O)[C@]3(O)CC` (stereo partly drawn) [Example 38, 5-(3'-dimethylaminopropoxy)-7-ethylcamptothecin], which mean GI50 is on record?
Answer: > 30 µM

Question: Which mean GI50 does the source give for `CCc1c2c(nc3ccccc13)-c1cc3c(c(=O)n1C2OCCCl)COC(=O)[C@]3(O)CC` (stereo partly drawn) [Example 40, 5-(2'-chloroethoxy)-7-ethylcamptothecin] here?
Answer: 2.75 µM

Question: With `CCc1c2c(nc3ccccc13)-c1cc3c(c(=O)n1C2OCCN(C)C)COC(=O)[C@]3(O)CC` (stereo partly drawn) [Example 41, 5-(2'-dimethylaminoethoxy)-7-ethylcamptothecin] as the compound, how does the mean GI50 read?
Answer: 13.8 µM
